Data on six compounds can be found in patent US20260078114A1, “COMPOUND USED AS INHIBITOR OF CDK4 KINASE AND USE THEREOF” (TYK MEDICINES, INC., priority 2022, published 2026).

Data set [1] is described as follows: Preclinical rat pharmacokinetic test. The format is in vivo. The note with it: male SD rats, gavage (p.o.), 10 mg/kg, plasma. How it is done: Healthy adult SD rats, male, 6-8 weeks old, weighing 200-300 g. EDTA-Na2 anticoagulant. Analytical balance, animal weight scale, magnetic stirrer, freezing centrifuge, single-channel manual pipette. About 10 mg of the sample to be tested was precisely weighed, the converted 5% DMSO was added to dissolve, and then 10 percent solutol HS-15 and 85% saline were added, ultrasonic treatment was performed, vortex mixed, to obtain the solution having a concentration of 1 mg/mL; freshly prepared before use. Animals were kept in rat cages and fasted (not less than 10 h) the day before the test, but not water fasted; on the day of the test, they were weighed and labeled at the tail. Blank blood was collected before drug administration. Blood was collected from the tail vein. • Route of administration: gavage (p.o.). • Dose: 10 mg/kg • Administration volume: 10 mL/kg • Operation procedure: Hold the rat with the left hand with anti-biting gloves, made it stand upright, extent the 16-gauge gavage needle from the throat in the mouth, and then injected the drug into the stomach when there was no obvious resistance. Before and 0.5 […] and 24 h after the administration of the drug, 0.1 ml of whole blood from the test animal was collected in EDTA-Na2 anticoagulant tubes, which was mixed upside down for 3-4 times and then centrifuged at 10,000 g for 5 min at 4° C. to isolate the plasma, which was stored at -80° C. for testing. Blood was collected from the tail vein. […] Pipetted 25 μL of rat blank plasma in a centrifuge tube respectively, added 25 μL of prepared standard series solution (prepared in methanol), then added 200 μL of internal standard solution (prepared in methanol), vortexed and mixed for 2 min, centrifuged at 4° C., 10,000 g for 10 min. Unknown plasma samples treatment: 25 μL of rat plasma containing drug was aspirated, 25 μL of methanol and 200 μL of internal standard solution were added sequentially, vortexed and mixed for 2 min, and then centrifuged at 4° C. and 10,000 g for 10 min. The supernatant was extracted for LC/MS/MS detection. Shimadzu liquid phase and Triple Quad TM 6500+AB mass spectrometry were utilized to establish a quantitative assay for the compounds to be tested. The pro-drug concentration in plasma was determined. The blood drug concentration-time curves were plotted, and the main pharmacokinetic parameters were calculated using the non-compartment model in winnonlin Phoenix software, and the detailed data were shown in Table 3.

The test system of data set [2] is human mantle cell lymphoma cell JEKO-1. Kind of data set: Cellular antiproliferative assay (MTT, 5 days), JEKO-1. The format is cell-based. The conditions noted are these: Homo sapiens, 120 h, JEKO-1 cells, 5 days incubation. In outline: (§1)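 MTT read-out at 570 nm after 3 h MTT incubation and isopropanol/HCl/NP-40 solubilisation; cells seeded at 50,000 cells/ml in DMEM with 10% FBS, 37 °C, 5% CO2, compound exposure 5 days. Viability calculated relative to 0.1% DMSO control and blank medium.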

In data set [3] the test system is Human breast cancer cell MCF-7. The data set can be described thus: Cellular antiproliferative assay (MTT, 5 days), MCF-7. The format is cell-based. The conditions noted are these: Homo sapiens, MCF7, 120 h, MCF-7 cells, 5 days incubation. In outline:
as §1

Data set [4] deals with ovarian cancer cell A2780. Kind of data set: Cellular antiproliferative assay (MTT, 5 days), A2780. The conditions noted are these: Homo sapiens, 120 h, A2780 cells, 5 days incubation. The format is cell-based, human. In outline: as §1

Regarding `CC1CC(=O)N(C)c2nc3c(F)cc(-c4nc(N[C@@H]5CCOC[C@H]5O)ncc4Cl)cc3n21` (stereo partly drawn) [TA-53, 7-(5-chloro-2-(((3S,4R)-3-hydroxytetrahydro-2H-pyran-4-yl)amino)pyrimidin-4-yl)-9-fluoro-1,4-dimethyl-3,4-dihydrobenzo[4,5]imidazo[1,2-a]pyrimidin-2(1H)-one], in data set [1] (Sprague-Dawley (SD), rat, po), the AUC(0-t) worked out at 3530 ng·h/mL, the highest concentration (Cmax) turned out to be 920 ng/mL and the Tmax amounted to 1 h. Further, the “HL—” value in data set [1] amounted to 1.77 h.

As for `CC(C)n1c(N2CCOCC2)nc2c(F)cc(-c3nc(N[C@@H]4CCOC[C@H]4O)ncc3Cl)cc21` [TB-12, (3S,4R)-4-((5-chloro-4-(4-fluoro-1-isopropyl-2-morpholino-1H-benzo[d]imidazol-6-yl)pyrimidin-2-yl)amino)tetrahydro-2H-pyran-3-ol], the IC50 in data set [2], in data set [3] and in data set [4] was at most 500 nM throughout. Also, in data set [1], the “HL—” value is given as 3.14 h.

Turning to `CC(C)n1c(N2CCOC2=O)nc2c(F)cc(-c3nc(N[C@@H]4CCOC[C@H]4O)ncc3Cl)cc21` [TB-24], the “HL—” value in data set [1] worked out at 3.14 h.

In the case of `CC(C)n1c(N2CCOC2=O)nc2c(F)cc(-c3nc(N[C@@H]4CCOC[C@H]4O)ncc3C(F)(F)F)cc21` [TB-27], the “HL—” value in data set [1] was 3.69 h.

For `CCS(=O)(=O)N1CCC(Nc2ncc(Cl)c(-c3cc(F)c4nc(N5CCOC5=O)n(C(C)C)c4c3)n2)CC1` [TB-31], the IC50 in data set [2], in data set [3] and in data set [4] was at most 500 nM in each case. Besides, in data set [1], the “HL—” value is 1.34 h.

`C[C@H]1CCN(C)c2nc3c(F)cc(-c4nc(N[C@@H]5CCOC[C@H]5O)ncc4Cl)cc3n21` [TB-92, (3S,4R)-4-((5-chloro-4-((S)-9-fluoro-1,4-dimethyl-1,2,3,4-tetrahydrobenzo[4,5]imidazo[1,2-a]pyrimidin-7-yl)pyrimidin-2-yl)amino)tetrahydro-2H-pyran-3-ol]: the 50% inhibitory concentration (IC50) in data set [2], in data set [3] and in data set [4] was at most 500 nM in each case. Also, in data set [1], the “HL—” value was found to be 1.21 h.
